Reference: patent publication EP4567031A1, “HPK1 INHIBITOR, PREPARATION METHOD THEREFOR, AND USE THEREOF” (Beijing Earthwise Technology Co., Ltd., priority 2022, dated 2024)

The compounds below were run on human Pan T cells (assay: Human Pan T cell IL-2 ELISA). Settings: Homo sapiens, T-cell, 48 h, Anti-CD3 and Anti-CD28, supernatant IL-2 ELISA, read-out: IL-2 release, EC50.
Type: cell-based
Method: A compound was dissolved in DMSO to 10 mM, and then diluted three-fold with DMSO to 9 dosages in a 96-well plate. Then, 10 µL of the diluted compound sample was transferred to a 96-well plate with 90 µL of cell culture medium, and the plate was shaken for 5 minutes. Then, 5 µL of the diluted compound sample was transferred to a 96-well plate with 120 µL of cell culture medium, and the plate was shaken for 5 minutes. According to the experimental design diagram, 50 µL of the diluted compound sample was transferred to a cell plate. Final concentrations of the compound in this assay were 10000.00, 5000, 2500, 1250, 625, 312.5, 156.25, 78.125 and 39.063 nM.
The assay was conducted in a 96-well plate. On the first day of the assay, Anti-CD3 was added to the 96-well plate and incubated in a 4 °C refrigerator overnight. On the second day of the assay, human Pan T cells were recovered, centrifuged and counted. The cell density was adjusted to 1*10^6 cells/ml. Then, 100 µL of cells were added to the 96-well plate washed with PBS and added with Anti-CD3; according to the experimental design diagram, 50 µL of diluted Anti-CD28 and 50 µL of the diluted compound were added to each well, centrifuged, and the cell plate was placed and incubated in an incubator for 48 hours; after 48 hours, the plate was centrifuged and the supernatant was collected for IL-2 ELISA.
The signal value of light absorption was converted into a multiple. Multiple = sample value/the average value of control wells. The average value of control wells refers to the value measured in wells with DMSO added. EC50 values were calculated by XLFit (version 5.3.1.3) in Excel. Equation: Y=Bottom + (Top-Bottom) / (1 + (EC50/X) ^ HillSlope). Table 6. Results of cellular activity of the compounds
Work on `COC1CCCn2c(-c3cc4c(c5c3CNC5=O)Nc3ccc(N5CCOCC5)cc3C4(C)C)nnc21` (racemic) [Example 120] yielded an EC50 of 0.0667 µM. Compound `COC1CCCn2c(-c3cc4c(c5c3CNC5=O)Nc3ccc(N5CCOCC5)nc3C4(C)C)cnc21` (single isomer, unassigned) [Example 25] has an EC50 of 0.0334 µM. In the case of `CC1(C)c2cc(N3CCOC(C(C)(C)O)C3)ccc2Nc2c1cc(-c1cnc3cc(F)ccn13)c1c2C(=O)NC1` (single isomer, unassigned) [Example 93], the EC50 is reported as 0.00633 µM. For `Cc1ccc2c(-c3cc4c(c5c3CNC5=O)Nc3ccc(N5CCOC(C(C)(C)O)C5)cc3C4(C)C)cnn2c1` (single isomer, unassigned) [Example 95], the EC50 was 0.00782 µM. For `Cc1ccn2c(-c3cc4c(c5c3CNC5=O)Nc3ccc(N5CCOC(C(C)(C)O)C5)cc3C4(C)C)cnc2c1` (single isomer, unassigned) [Example 106], the EC50 was 0.0183 µM. In the case of `CC1(C)c2cc(N3CCOC(C(C)(C)O)C3)ccc2Nc2c1cc(-c1cnc3cc(Cl)ccn13)c1c2C(=O)NC1` (single isomer, unassigned) [Example 125], the EC50 is reported as 0.00723 µM. Compound `COc1c(F)ccn2c(-c3cc4c(c5c3CNC5=O)Nc3ccc(N5CCOC(C(C)(C)O)C5)cc3C4(C)C)cnc12` (single isomer, unassigned) [Example 127] has an EC50 of 0.0124 µM. In the case of `CC1(C)c2cc(N3CCOC(C(C)(C)O)C3)ccc2Nc2c1cc(-c1cnc3cc(C(F)F)ccn13)c1c2C(=O)NC1` (single isomer, unassigned) [Example 129], the EC50 is reported as 0.0182 µM. Compound `COC1CCCn2c(-c3cc4c(c5c3CNC5=O)Nc3ccc(N5CCOC(C(C)(C)O)C5)cc3C4(C)C)cnc21` (single isomer, unassigned) [Example 132] has an EC50 of 0.0101 µM. `CC1(C)c2cc(N3CCOC(C(C)(C)O)C3)ccc2Nc2c1cc(-c1cnc3cc(C#N)ccn13)c1c2C(=O)NC1` (single isomer, unassigned) [Example 133] gave an EC50 of 0.0221 µM. `CCc1ncc(-c2cc3c(c4c2CNC4=O)Nc2ccc(N4CCOC(C(C)(C)O)C4)cc2C3(C)C)n1C` (single isomer, unassigned) [Example 134] was tested, and the EC50 was 0.0195 µM. `CCOC1CCCn2c(-c3cc4c(c5c3CNC5=O)Nc3ccc(N5CCOCC5)cc3C4(C)C)cnc21` (single isomer, unassigned) [Example 136] showed an EC50 of 0.0245 µM. In the case of `COC1CCCn2c(-c3cc4c(c5c3CNC5=O)Nc3ccc(N5CC(C)OC(C)C5)cc3C4(C)C)cnc21` (single isomer, unassigned) [Example 140], the EC50 is reported as 0.0358 µM. `Cn1c(-c2cc3c(c4c2CNC4=O)Nc2ccc(N4CCOC(C(C)(C)O)C4)cc2C3(C)C)cnc1C1CCOCC1` (single isomer, unassigned) [Example 141] showed an EC50 of 0.0873 µM. Work on `COC1CCn2c(-c3cc4c(c5c3CNC5=O)Nc3ccc(N5CCOC(C(C)(C)O)C5)cc3C4(C)C)cnc2C1` (single isomer, unassigned) [Example 142] yielded an EC50 of 0.0251 µM. Compound `Cn1c(-c2cc3c(c4c2CNC4=O)Nc2ccc(N4CCOC(C(C)(C)O)C4)cc2C3(C)C)cnc1C1CCNC1` (single isomer, unassigned) [Example 143] has an EC50 of 0.592 µM. `COC1CCCn2c(-c3cc4c(c5c3CNC5=O)Nc3cc(C5CCOCC5)ccc3C4(C)C)cnc21` (single isomer, unassigned) [Example 144] was tested, and the EC50 was 0.134 µM. With `CC1(C)c2cc(N3CCOC(C(C)(C)O)C3)ccc2Nc2c1cc(-c1cnn3cc(C#N)ccc13)c1c2C(=O)NC1` (single isomer, unassigned) [Example 145] the EC50 was 0.0065 µM. Compound `Cn1ncc2c(-c3cc4c(c5c3CNC5=O)Nc3ccc(N5CCOC(C(C)(C)O)C5)cc3C4(C)C)cncc21` (single isomer, unassigned) [Example 146] has an EC50 of 0.0057 µM. In the case of `Cn1c(-c2cc3c(c4c2CNC4=O)Nc2ccc(N4CCOC(C(C)(C)O)C4)cc2C3(C)C)cnc1C1CCOC1` (single isomer, unassigned) [Example 147], the EC50 is reported as 0.0427 µM. With `Cc1c(-c2cc3c(c4c2CNC4=O)Nc2ccc(N4CCOC(C(C)(C)O)C4)cc2C3(C)C)cnn1C1CC1` (single isomer, unassigned) [Example 148] the EC50 was 0.0218 µM.
